“Also recorded” adds a separate entry of the source. Read-outs that look alike come from different tables or passages of the source. One block for each compound: values may come before it.
How the values were obtained:
[1] = test system: patients with hematological malignancies; assay: Adverse effects during the DDI study; format: in vivo, human
[2] = Voriconazole steady-state check from two adjacent trough concentrations; format: in vivo, human; conditions: first four patients, day 4, 200 mg per 12 h without loading dose
[3] = test system: breast cancer resistance protein (BCRP); conditions: cited from earlier work
[4] = no reference given; cited from earlier work
[5] = Ruxolitinib pharmacokinetics without and with co-administered voriconazole; format: in vivo, human
SR-aGVHD patients = conditions: 10 mg ruxolitinib twice daily, cited from earlier work
[6] = human; cited from earlier work
[7] = coadministered with fluconazole vs ruxolitinib alone; cited from earlier work
[8] = test system: patients receiving ruxolitinib; conditions: patients receiving ruxolitinib vs control regimen; cited from earlier work
CYP3A4 = conditions: cited from earlier work
CYP2C9 = conditions: cited from earlier work
patients undergoing HSCT = conditions: initial dose 5 mg twice daily; cited from earlier work
healthy people = conditions: cited from earlier work
[9] = 10 mg once daily for 10 days; cited from earlier work
[10] = presence vs absence of food; cited from earlier work
[11] = after pre-treatment with voriconazole vs ruxolitinib alone
[12] = ruxolitinib 5 mg co-administered with voriconazole
[13] = with voriconazole vs ruxolitinib alone

difference between two trough concentrations (C12-C0)/C12×100% [2]: less than 15%
Structure (SMILES): C[C@@H](c1ncncc1F)[C@](O)(Cn1cncn1)c1ccc(F)cc1F [voriconazole]
adverse effects ([1]; voriconazole 200 mg per 12 h without loading dose, first four patients): no adverse effects were observed
inhibition of BCRP [3]: does not inhibit
bioavailability [4]: 96%

Structure (SMILES): N#CC[C@H](C1CCCC1)n1cc(-c2ncnc3[nH]ccc23)cn1 [ruxolitinib]
AUCinf increased by [5, 11]: 118.3%
AUClast increased by [5, 11]: 110.1%
Cmax increased by [5, 11]: 50.4%
T1/2 increased by [5, 11]: 81.3%
change in Tmax [5, 11]: no significant change
CL/F % of ruxolitinib alone [5, 12]: 43.6%
Cmax % of ruxolitinib alone [5, 12]: 150.4%
CL/F ([5]; ruxolitinib 5 mg single oral dose alone, 12 patients, mean ± SD): 22.5 ± 6.4 L/h
AUClast increased to [5, 13]: approximately 2.1 fold
T1/2 prolonged to [5, 13]: 1.81 fold
AUCinf increased to (range over patients) ([5]; with voriconazole vs ruxolitinib alone, range): 1.44–3.35 fold
adverse effects ([1]; two single doses of 5 mg ruxolitinib): No observed adverse effects; also recorded: No adverse effect
overall response on day 28 (SR-aGVHD patients; SR-aGVHD): 62%
anemia, severe (grade ≥ 3) adverse event (SR-aGVHD patients): 22%
neutropenia, severe (grade ≥ 3) adverse event (SR-aGVHD patients): 13%
thrombocytopenia, severe (grade ≥ 3) adverse event (SR-aGVHD patients): 27%
unchanged parent molecules in urine and feces [6]: less than 1%
AUCinf increased by [7]: 232%
AUClast increased by [7]: 234%
Cmax increased by [7]: 47%
fungal infection [8]: 11.5%
share of metabolism by CYP3A4 (CYP3A4): 76%
share of metabolism by CYP2C9 (CYP2C9): 19%
patients developing severe cytopenia (patients undergoing HSCT): 60%
patients responding (patients undergoing HSCT): 75%
maximum tolerated dose (MTD) (healthy people; once daily): 100 mg
maximum tolerated dose (MTD) (healthy people; twice daily): 25 mg
accumulation on repeated dosing [9]: no cumulative effect
AUCinf decreased by food [10]: 6%
Cmax decreased by food [10]: 24.3%

Structure (SMILES): CC[C@@H]([C@H](C)O)n1ncn(-c2ccc(N3CCN(c4ccc(OC[C@@H]5CO[C@@](Cn6cncn6)(c6ccc(F)cc6F)C5)cc4)CC3)cc2)c1=O [posaconazole]
bioavailability [4]: 83%
